The assay deals with T1, human mAChR M1 (Homo sapiens, UniProt P11229).
T1 construct: host or cells: CHO-K1 (ATCC), stably transfected using Lipofectamine 2000
T1 sequence (P11229 1-460): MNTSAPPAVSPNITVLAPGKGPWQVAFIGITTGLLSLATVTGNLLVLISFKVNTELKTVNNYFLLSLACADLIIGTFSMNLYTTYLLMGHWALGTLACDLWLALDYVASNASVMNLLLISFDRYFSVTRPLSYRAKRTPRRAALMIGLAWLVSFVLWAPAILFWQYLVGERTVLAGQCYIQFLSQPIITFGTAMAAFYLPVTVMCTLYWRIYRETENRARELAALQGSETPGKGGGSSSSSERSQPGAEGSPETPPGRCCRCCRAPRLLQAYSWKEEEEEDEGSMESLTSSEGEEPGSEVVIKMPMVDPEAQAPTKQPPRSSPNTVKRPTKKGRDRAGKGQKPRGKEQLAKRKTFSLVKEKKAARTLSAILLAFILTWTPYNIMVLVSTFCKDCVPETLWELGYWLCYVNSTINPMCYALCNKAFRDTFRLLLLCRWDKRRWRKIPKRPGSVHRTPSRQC
The assay can be described thus: mAChR M1 cell-based functional assay (calcium mobilization, Fluo-4, FDSS). The settings on record: CHO-K1 cells stably expressing hM1, calcium flux; for Emax: PAM mode with EC20 acetylcholine; for EC50: concentration-dependent increase in the EC20 acetylcholine response. The source says: Chinese hamster ovary (CHO-K1) cells stably expressing rat (r)M1 were purchased from the American Type Culture Collection and cultured according to their indicated protocol. CHO cells stably expressing human (h)M2, hM3, and hM5 were described previously (Levey, et al., 1991); hM1 and hM4 cDNAs were purchased from Missouri S&T cDNA Resource; rM4 cDNA was provided by T. I. Bonner (National Institutes of Health, Bethesda, Md.). rM2 and rM3 were cloned from a rat brain cDNA library and sequence verified. hM1, rM2, rM3, hM4, and rM4 cDNAs were used to stably transfect CHO-K1 cells purchased from the American Type Culture Collection using Lipofectamine 2000. To make stable rM2, hM2, rM3, hM4, and rM4 cell lines for use in calcium mobilization assays, these cells also were stably transfected with a chimeric G-protein (Gqi5) (provided by B. R. Conklin, University of California, San Francisco) using Lipofectamine 2000. rM1, hM1, rM3, hM3, rM5, and hM5 cells were grown in Ham's F-12 medium containing 10% heat-inactivated fetal bovine serum (FBS), 20 mM HEPES, and 50 µg/mL G418 sulfate. rM2-Gqi5, hM2-Gqi5, and hM4-Gqi5 cells were grown in the same medium also containing 500 μg/mL Hygromycin B. Stable rM4-Gqi5 cells were grown in DMEM containing 10% heat-inactivated FBS, 20 mM HEPES, 400 μg/mL G418 sulfate, and 500 μg/mL Hygromycin B.
For high throughput measurement of agonist-evoked increases in intracellular calcium, CHO-K1 cells stably expressing muscarinic receptors were plated in growth medium lacking G418 and hygromycin at 15,000 cells/20 μL/well in Greiner 384-well black-walled, tissue culture (TC)-treated, clear-bottom plates (VWR). Cells were incubated overnight at 37° C. and 5% CO2. The next day, cells were washed using an ELX 405 (BioTek) with four washes ([…]) of assay buffer then aspirated to 20 μL. Next, 20 μL of 16 μM Fluo-4/acetoxymethyl ester (Invitrogen, Carlsbad, Calif.) prepared as a 2.3 mM stock in DMSO and mixed in a 1:1 ratio with 10% (w/v) Pluronic F-127 and diluted in assay buffer was added to the wells and the cell plates were incubated for 50 min at 37° C. and 5% CO2. Dye was removed by washing with the ELX 405 (four 80 μL washes of assay buffer) then aspirated to 20 μL. Compound master plates were formatted in an 11 point CRC format (1:3 dilutions) in 100% DMSO with a starting concentration of 10 mM using the BRAVO liquid handler (Agilent). Test compound CRCs were then transferred to daughter plates (240 nL) using the Echo acoustic plate reformatter (Labcyte, Sunnyvale, Calif.) and then diluted into assay buffer (40 μL) to a 2× stock using a Thermo Fisher Combi (Thermo Fisher Scientific, Waltham, Mass.).
Calcium flux was measured using the Functional Drug Screening System (FDSS) 6000 (Hamamatsu Corporation, Tokyo, Japan) as an increase in the fluorescent static ratio. Compounds were applied to cells (20 μL, 2×) using the automated system of the FDSS 6000 at 4 s into the 300 s protocol and the data were collected at 1 Hz. At 144 s into the 300s protocol, 10 μL of an EC20 concentration of the muscarinic receptor agonist acetylcholine was added (5×), followed by the addition of 12 μL an EC80 concentration of acetylcholine at the 230 s time point (5×). Agonist activity was analyzed as a concentration-dependent increase in calcium mobilization upon compound addition. Positive allosteric modulator activity was analyzed as a concentration-dependent increase in the EC20 acetylcholine response. Antagonist activity was analyzed as a concentration-dependent decrease in the EC80 acetylcholine response. Concentration-response curves were generated using a four-parameter logistical equation in XLfit curve fitting software (IDBS, Bridgewater, N.J.) for Excel (Microsoft, Redmond, Wash.) or Prism (GraphPad Software, Inc., San Diego, Calif.).
Activity (EC50 and Emax) was determined in the mAChR M1 cell-based functional assay as described above and the data are shown in Table 2. […]
(A change in cytosolic calcium serves as a functional read-out for many receptors and channels.)

Consider `O=C1c2c(ccn2CC2CCCO2)CN1Cc1c(F)cc(-c2ccc3nccn3c2)cc1F` (stereo not shown) [Compound 52, 5-(2,6-difluoro-4-(imidazo[1,2-a]pyridin-6-yl)benzyl)-1-((tetrahydrofuran-2-yl)methyl)-4,5-dihydropyrrolo[3,4-b]pyrrol-6(1H)-one], for which the Emax (as a rule, the size of the effect at its maximum, as opposed to the concentration needed) stood at 33% and the EC50 – broadly, the concentration at which the effect is half-maximal – is 2.15 µM.
Taken in the same sequence, the figures for `Cn1cc2cc(-c3cc(F)c(CN4Cc5sccc5C4=O)c(F)c3)ccc2n1` [Compound 26, 5-(2,6-difluoro-4-(2-methyl-2H-indazol-5-yl)benzyl)-5,6-dihydro-4H-thieno[2,3-c]pyrrol-4-one] were 59% and 1.02 µM.
As to `Cn1cc(-c2cc(F)c(CN3Cc4occc4C3=O)c(F)c2)cn1` [Compound 58, 5-(2,6-difluoro-4-(1-methyl-1H-pyrazol-4-yl)benzyl)-5,6-dihydro-4H-furo[2,3-c]pyrrol-4-one], the Emax came to 78%.
For the compound `Cn1cc2c(-c3cc(F)c(CN4Cc5ccsc5C4=O)c(F)c3)cccc2n1` [Compound 2, 5-(2,6-difluoro-4-(2-methyl-2H-indazol-4-yl)benzyl)-4,5-dihydro-6H-thieno[2,3-c]pyrrol-6-one], the Emax was 70% and the concentration giving a half-maximal response (EC50) was found to be 1.26 µM.
Taken in the same sequence, the figures for `Cn1cc2cc(-c3cc(F)c(CN4Cc5cnn(CC6CCCO6)c5C4=O)c(F)c3)ccc2n1` (stereo not shown) [Compound 36, 5-(2,6-difluoro-4-(2-methyl-2H-indazol-5-yl)benzyl)-1-((tetrahydrofuran-2-yl)methyl)-4,5-dihydropyrrolo[3,4-c]pyrazol-6(1H)-one] were 82% and 1.48 µM.
With `Cc1[nH]cc2c1C(=O)N(Cc1c(F)cc(-c3cccc4nn(C)cc34)cc1F)C2` [Compound 61, 2-(2,6-difluoro-4-(2-methyl-2H-indazol-4-yl)benzyl)-6-methyl-3,5-dihydropyrrolo[3,4-c]pyrrol-1(2H)-one], the Emax is 51%.
For the compound `Cn1cc(-c2cc(F)c(CN3Cc4cnn(CC5CCCO5)c4C3=O)c(F)c2)cn1` (stereo not shown) [Compound 35, 5-(2,6-difluoro-4-(1-methyl-1H-pyrazol-4-yl)benzyl)-1-((tetrahydrofuran-2-yl)methyl)-4,5-dihydropyrrolo[3,4-c]pyrazol-6(1H)-one], the Emax stood at 73%.
Take `Cn1cc2cc(-c3cc(F)c(CN4Cc5ncsc5C4=O)c(F)c3)ccc2n1` [Compound 22, 5-(2,6-difluoro-4-(2-methyl-2H-indazol-5-yl)benzyl)-4,5-dihydro-6H-pyrrolo[3,4-d]thiazol-6-one]: the Emax came to 28% and the EC50 amounted to 0.37 µM.
With `Cn1cc2cccc(-c3cc(F)c(CN4Cc5occc5C4=O)c(F)c3)c2n1` [Compound 60, 5-(2,6-difluoro-4-(2-methyl-2H-indazol-7-yl)benzyl)-5,6-dihydro-4H-furo[2,3-c]pyrrol-4-one], the Emax was 50%.
As for `Cn1cc2c(-c3cc(F)c(CN4Cc5occc5C4=O)c(F)c3)cccc2n1` [Compound 56, 5-(2,6-difluoro-4-(2-methyl-2H-indazol-4-yl)benzyl)-5,6-dihydro-4H-furo[2,3-c]pyrrol-4-one], the Emax was found to be 80% and the EC50 came out at 3.6 µM.
On to `Cc1cc(-c2cc(F)c(CN3Cc4sccc4C3=O)c(F)c2)cc2cn[nH]c12` [Compound 29, 5-(2,6-difluoro-4-(7-methyl-1H-indazol-5-yl)benzyl)-5,6-dihydro-4H-thieno[2,3-c]pyrrol-4-one], for which the Emax was found to be 45%.
The same measure, in the same setting: next, `Cn1cc(-c2cc(F)c(CN3Cc4cn(CC5CCCO5)nc4C3=O)c(F)c2)cn1` (stereo not shown) [Compound 34, 5-(2,6-difluoro-4-(1-methyl-1H-pyrazol-4-yl)benzyl)-2-((tetrahydrofuran-2-yl)methyl)-4,5-dihydropyrrolo[3,4-c]pyrazol-6(2H)-one]: 35%.
Consider `Cn1cc2c(-c3cc(F)c(CN4Cc5cn(CC6CCCO6)nc5C4=O)c(F)c3)cccc2n1` (stereo not shown) [Compound 17, 5-(2,6-difluoro-4-(2-methyl-2H-indazol-4-yl)benzyl)-2-((tetrahydrofuran-2-yl)methyl)-4,5-dihydropyrrolo[3,4-c]pyrazol-6(2H)-one], for which the Emax was determined as 58% and the EC50 is 3.41 µM.
Turning to `COCCn1cc2c(n1)C(=O)N(Cc1c(F)cc(-c3cccc4nn(C)cc34)cc1F)C2` [Compound 19, 5-(2,6-difluoro-4-(2-methyl-2H-indazol-4-yl)benzyl)-2-(2-methoxyethyl)-4,5-dihydropyrrolo[3,4-c]pyrazol-6(2H)-one], the Emax was determined as 45%.
For the compound `Cn1cc2c(-c3cc(F)c(CN4Cc5cn[nH]c5C4=O)c(F)c3)cccc2n1` [Compound 6.2, 5-(2,6-difluoro-4-(2-methyl-2H-indazol-4-yl)benzyl)-4,5-dihydropyrrolo[3,4-c]pyrazol-6(1H)-one], the Emax came out at 87%.
As to `Cn1cc(-c2cc(F)c(CN3Cc4ccn(CC5CCCO5)c4C3=O)c(F)c2)cn1` (stereo not shown) [Compound 50, 5-(2,6-difluoro-4-(1-methyl-1H-pyrazol-4-yl)benzyl)-1-((tetrahydrofuran-2-yl)methyl)-4,5-dihydropyrrolo[3,4-b]pyrrol-6(1H)-one], the Emax was 38% and the EC50 is 3.44 µM.
`CCn1ccc2c1C(=O)N(Cc1c(F)cc(-c3cccc4nn(C)cc34)cc1F)C2` [Compound 53, 5-(2,6-difluoro-4-(2-methyl-2H-indazol-4-yl)benzyl)-1-ethyl-4,5-dihydropyrrolo[3,4-b]pyrrol-6(1H)-one]: the Emax stood at 63%.
With `Cc1nn(C)cc1-c1cc(F)c(CN2Cc3cnn(CC4CCCO4)c3C2=O)c(F)c1` (stereo not shown) [Compound 37, 5-(4-(1,3-dimethyl-1H-pyrazol-4-yl)-2,6-difluorobenzyl)-1-((tetrahydrofuran-2-yl)methyl)-4,5-dihydropyrrolo[3,4-c]pyrazol-6(1H)-one], the Emax turned out to be 77% and the EC50 turned out to be 3.22 µM.
The corresponding values for `Cn1cc2c(-c3cc(F)c(CN4Cc5ccn(CC6CCCO6)c5C4=O)c(F)c3)cccc2n1` (stereo not shown) [Compound 49, 5-(2,6-difluoro-4-(2-methyl-2H-indazol-4-yl)benzyl)-1-((tetrahydrofuran-2-yl)methyl)-4,5-dihydropyrrolo[3,4-b]pyrrol-6(1H)-one] are 60% and 6.45 µM.
`Cn1cc2cc(-c3cc(F)c(CN4Cc5occc5C4=O)c(F)c3)ccc2n1` [Compound 57, 5-(2,6-difluoro-4-(2-methyl-2H-indazol-5-yl)benzyl)-5,6-dihydro-4H-furo[2,3-c]pyrrol-4-one]: the Emax was determined as 42% and the EC50 was 0.99 µM.
